Measurements as given in ChEMBL document CHEMBL5724914, “Linking interpersonal differences in gut microbiota composition and drug biotransformation activity” (2024).

Assays:
[1] = (§1) The drug is tested on Z-027 corresponding to metagenome with ENA study accession number: PRJEB37062 and ENA sample accession number: ERS12561826 for biotransformation under anaerobic condition. The drug concentrations were measured over 9 timepoints collected between 0 and 24 hours of incubation by liquid-chromatography-coupled mass spectrometry (LC–MS); settings: 2 µM
[2] = (§2) The drug is tested on Z-019 corresponding to rat gut metagenome with ENA study accession number: PRJEB37062 and ENA sample accession number: ERS12561818 for biotransformation under anaerobic condition. The drug concentrations were measured over 9 timepoints collected between 0 and 24 hours of incubation by liquid-chromatography-coupled mass spectrometry (LC–MS); settings: 2 µM
[3] = as §2, with “on Z-018” for “on Z-019”, “to pig” for “to rat”, “number: ERS12561817” for “number: ERS12561818”; settings: 2 µM
[4] = as §2, with “on Z-016” for “on Z-019”, “to mouse” for “to rat”, “number: ERS12561815” for “number: ERS12561818”; settings: 2 µM
[5] = as §1, with “Z-004” for “Z-027”, “ERS12561804” for “ERS12561826”; settings: 2 µM
[6] = as §2, with “on WLS-310” for “on Z-019”, “to human” for “to rat”, “number: ERS12561785” for “number: ERS12561818”; settings: 2 µM
[7] = as §2, with “on WLS-220” for “on Z-019”, “to human” for “to rat”, “number: ERS12561769” for “number: ERS12561818”; settings: 2 µM
[8] = as §2, with “on WLS-082” for “on Z-019”, “to human” for “to rat”, “number: ERS12561751” for “number: ERS12561818”; settings: 2 µM
[9] = as §2, with “on WLS-077” for “on Z-019”, “to human” for “to rat”, “number: ERS12561750” for “number: ERS12561818”; settings: 2 µM
[10] = as §2, with “on WLS-052” for “on Z-019”, “to human” for “to rat”, “number: ERS12561747” for “number: ERS12561818”; settings: 2 µM
[11] = as §2, with “on WLS-039” for “on Z-019”, “to human” for “to rat”, “number: ERS12561746” for “number: ERS12561818”; settings: 2 µM
[12] = as §2, with “on WLS-007” for “on Z-019”, “to human” for “to rat”, “number: ERS12561742” for “number: ERS12561818”; settings: 2 µM
[13] = human gut metagenome, 24 h, 2 µM
[14] = human gut metagenome, 24 h, 2 µM; remark: listed apart in the source
[15] = human gut metagenome, 24 h, 2 µM; remark: listed apart in the source
[16] = human gut metagenome, 24 h, 2 µM; remark: listed apart in the source
[17] = human gut metagenome, 24 h, 2 µM; remark: listed apart in the source
[18] = human gut metagenome, 24 h, 2 µM; remark: listed apart in the source
[19] = human gut metagenome, 24 h, 2 µM; remark: listed apart in the source
[20] = human gut metagenome, 24 h, 2 µM; remark: listed apart in the source
Note: call rule not given here.

Bacterial Biotransformation [1]	Bacterial Biotransformation [2]	Bacterial Biotransformation [3]	Bacterial Biotransformation [4]	Bacterial Biotransformation [5]	Bacterial Biotransformation [6]	Bacterial Biotransformation [7]	Bacterial Biotransformation [8]	Bacterial Biotransformation [9]	Bacterial Biotransformation [10]	Bacterial Biotransformation [11]	Bacterial Biotransformation [12]	Bacterial Biotransformation [13]	Bacterial Biotransformation [14]	Bacterial Biotransformation [15]	Bacterial Biotransformation [16]	Bacterial Biotransformation [17]	Bacterial Biotransformation [18]	Bacterial Biotransformation [19]	Bacterial Biotransformation [20]	Structure (SMILES)
Compound NOT metabolized	Compound NOT metabolized	Compound metabolized	Compound metabolized	Compound metabolized	Compound metabolized	Compound metabolized	Compound metabolized	Compound metabolized	Compound metabolized	Compound metabolized	Compound metabolized	Compound metabolized	Compound metabolized	Compound metabolized	Compound metabolized	Compound metabolized	Compound metabolized	Compound metabolized	Compound NOT metabolized	CCOC(=O)[C@H](CCc1ccccc1)N[C@@H](C)C(=O)N1[C@H](C(=O)O)C[C@@H]2CCC[C@@H]21
Compound NOT metabolized	Compound NOT metabolized	Compound metabolized	Compound NOT metabolized	Compound NOT metabolized	Compound metabolized	Compound NOT metabolized	Compound metabolized	Compound metabolized	Compound NOT metabolized	Compound NOT metabolized	Compound metabolized	Compound metabolized	Compound metabolized	Compound NOT metabolized	Compound metabolized	Compound metabolized	Compound metabolized	Compound metabolized	Compound NOT metabolized	CCN(CC)CCNC(C(=O)OCCC(C)C)c1ccccc1.Cl.Cl (stereo not given)
Compound NOT metabolized	Compound NOT metabolized	Compound NOT metabolized	Compound NOT metabolized	Compound NOT metabolized	Compound metabolized	Compound NOT metabolized	Compound NOT metabolized	Compound NOT metabolized	Compound NOT metabolized	Compound NOT metabolized	Compound NOT metabolized	Compound metabolized	Compound metabolized	Compound metabolized	Compound metabolized	Compound metabolized	Compound metabolized	Compound metabolized	Compound NOT metabolized	CCCC(=O)Nc1ccc(OCC(O)CNC(C)C)c(C(C)=O)c1 (stereo not given) [ACEBUTOLOL]
Compound metabolized	Compound NOT metabolized	Compound NOT metabolized	Compound NOT metabolized	Compound NOT metabolized	Compound NOT metabolized	Compound metabolized	Compound NOT metabolized	Compound NOT metabolized	Compound NOT metabolized	Compound NOT metabolized	Compound NOT metabolized	Compound NOT metabolized	Compound NOT metabolized	Compound NOT metabolized	Compound metabolized	Compound metabolized	Compound metabolized	Compound metabolized	Compound NOT metabolized	C=CCc1ccccc1OCC(O)CNC(C)C (stereo not given) [ALPRENOLOL]
Compound NOT metabolized	Compound NOT metabolized	Compound NOT metabolized	Compound NOT metabolized	Compound NOT metabolized	Compound metabolized	Compound NOT metabolized	Compound metabolized	Compound metabolized	Compound metabolized	Compound metabolized	Compound metabolized	Compound metabolized	Compound metabolized	Compound metabolized	Compound metabolized	Compound metabolized	Compound metabolized	Compound metabolized	Compound NOT metabolized	CC(C)c1c(C(=O)Nc2ccccc2)c(-c2ccccc2)c(-c2ccc(F)cc2)n1CC[C@@H](O)C[C@@H](O)CC(=O)O [ATORVASTATIN]
Compound NOT metabolized	Compound NOT metabolized	Compound metabolized	Compound metabolized	Compound metabolized	Compound metabolized	Compound metabolized	Compound metabolized	Compound metabolized	Compound metabolized	Compound metabolized	Compound metabolized	Compound metabolized	Compound metabolized	Compound metabolized	Compound metabolized	Compound metabolized	Compound metabolized	Compound metabolized	Compound NOT metabolized	CCOC(=O)[C@H](CCc1ccccc1)N[C@H]1CCc2ccccc2N(CC(=O)O)C1=O [BENAZEPRIL]
Compound NOT metabolized	Compound NOT metabolized	Compound NOT metabolized	Compound NOT metabolized	Compound NOT metabolized	Compound NOT metabolized	Compound NOT metabolized	Compound NOT metabolized	Compound NOT metabolized	Compound NOT metabolized	Compound NOT metabolized	Compound NOT metabolized	Compound NOT metabolized	Compound NOT metabolized	Compound NOT metabolized	Compound NOT metabolized	Compound NOT metabolized	Compound metabolized	Compound NOT metabolized	Compound NOT metabolized	NS(=O)(=O)c1cc2c(cc1Cl)N=C(CSCc1ccccc1)NS2(=O)=O [BENZTHIAZIDE]
